Holding throughout (assay): DTP human tumour cell line panel, 48 h
Assay [1] deals with A498 renal.
For assay [2], the system named is BT-549 breast.
In assay [3] the test system is DU-145 prostate.
Assay [4] relates to HCT-116 colon.
In assay [5] the test system is HL-60(TB) leukemia.
Assay [6] has as its system OVCAR-4 ovarian.
The test system of assay [7] is RPMI-8226 leukemia.
Assay [8] deals with SNB-19 CNS.
The test system of assay [9] is TK-10 renal.
The test system of assay [10] is K-562 leukemia.
For assay [11], the system named is UACC-257 melanoma.

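Cultured in 96-well plates, cells were exposed to test compound for 48 hours across five concentrations. The concentration for 50% growth inhibition is given as GI50. Definition used: TGI = concentration required for complete inhibition of growth.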

As usually defined, the TGI is the concentration giving total growth inhibition. The low end stands for more potent growth arrest, the high end for less potent growth arrest. Usually GI50 stands for the concentration that inhibits growth by half.

For `COc1ccc(NC(=O)CC(=O)n2nc(C)c(N=Nc3cccc(C)c3)c2C)cc1`, the TGI in assay [1], in assay [2], in assay [3], in assay [4], in assay [5] and in assay [6] was > 100 µM throughout. Also, the TGI in assay [7], in [8] and in [9] was > 100 µM in each case.

Turning to `CNC(=S)N/N=C(\C(=N/NC(=S)NC)c1ccccn1)c1ccccn1`, the TGI in [1], in assay [2], in assay [3], in assay [4], in assay [10] and in [6] was > 100 µM throughout. In addition, the concentration for total growth inhibition (TGI) in assay [7], in assay [8], in assay [9] and in [11] was > 100 µM in each case.

In the case of `CCCC(O)c1cn(C(NC(=O)c2ccccc2)P(=O)(OCC)OCC)nn1` (configuration not stated), the TGI in assay [1], in [2], in assay [3], in [4], in assay [5] and in assay [10] was > 100 µM throughout. Moreover, the TGI in [6], in [7], in assay [8], in assay [9] and in assay [11] was > 100 µM in each case.

For `Cc1c(-c2ccccc2)nn2cc(-c3ccccc3)nnc12`, the TGI in assay [1] is > 100 µM; in assay [2] it was 87.3 µM; in [3], > 100 µM; in assay [4] it was > 100 µM; in assay [10], > 100 µM; in assay [6] it was > 100 µM. Moreover, the TGI in [7], in assay [8], in [9] and in assay [11] was > 100 µM throughout.

Regarding `CC(=O)OCc1cncn1S(=O)(=O)c1ccc(C)cc1`, the TGI was > 100 µM in [2]; > 100 µM in assay [3]; > 100 µM in assay [4]; 50.2 µM in assay [5]; > 100 µM in assay [10]; > 100 µM in assay [6]. The TGI in assay [7], in [8], in assay [9] and in assay [11] was > 100 µM in each case.

`CCOC(=O)c1c(Br)c(-c2ccc(OC)cc2)c(Br)n1C`: the TGI in [1] was 49.6 µM; in assay [2], > 100 µM; in assay [3] it was > 100 µM; in [4] it was 62.6 µM; in assay [5], 14.1 µM; in [10], 38.3 µM. Moreover, the concentration for total growth inhibition (TGI) in [6] was > 100 µM; in [7] it was > 100 µM; in [8] it was 97.7 µM; in [9], 94 µM; in assay [11], 95.8 µM. Also, the GI50 in [4] was 16 µM; in assay [10], 4.04 µM.

In the case of `CN(CCO)CCCC1COc2ccccc2O1` (configuration not stated), the concentration for total growth inhibition (TGI) in assay [2], in assay [3], in [4], in assay [5], in assay [10] and in assay [6] was > 100 µM each time. Besides, the TGI in assay [8], in [9] and in assay [11] was > 100 µM throughout.

As to `CC(=O)OC(Cc1ccc2ccccc2n1)(C(F)(F)F)C(F)(F)F`, the TGI was 14.6 µM in assay [1]; 4.17 µM in assay [2]; 17.9 µM in assay [3]; 4.24 µM in assay [4]; 0.352 µM in [5]; > 100 µM in [10]. Moreover, the TGI in assay [6] is 7.08 µM; in assay [8], 14.7 µM; in assay [9] it was 2.55 µM; in [11] it was 0.328 µM.

For `CC(=O)c1ccccc1NCC(=O)Nn1cnc2ccc(S(=O)(=O)Nc3ccccc3C(C)=O)cc2c1=O`, the TGI in assay [2], in assay [3], in assay [4], in [5], in assay [10] and in assay [6] was > 100 µM in each case. Also, the TGI in assay [7], in assay [8], in assay [9] and in assay [11] was > 100 µM throughout.

In the case of `COc1ccc(/C=C2\CCS(=O)(=O)c3ccccc3C2=O)cc1OC`, the TGI in assay [1] is 73.7 µM; in assay [2], 76.2 µM; in [3], > 100 µM; in [4] it was > 100 µM; in [5], 70 µM; in [10] it was > 100 µM. The TGI in assay [6] is 71.5 µM; in assay [7], > 100 µM; in [8] it was > 100 µM; in assay [9], > 100 µM; in [11] it was > 100 µM.

For `CCOC(=O)C(CC(C)C)NC(=O)CSc1nnc(COc2ccc(Cl)cc2)n1-c1ccccc1` (configuration not stated), the TGI in assay [1] is 28.2 µM; in assay [2], 32.1 µM; in [3], 32.4 µM; in assay [4], 28 µM; in assay [5] it was 43.4 µM; in [10], > 100 µM. The TGI is 36.2 µM in assay [6]; 54.5 µM in [7]; 31.6 µM in [8]; 33.1 µM in [9]; 23.2 µM in assay [11].

On to `CSC1C(=O)Nc2ccc3ccccc3c21` (configuration not stated), for which the TGI in assay [2] is 50.7 µM; in assay [3] it was > 100 µM; in [4], 29.9 µM; in [5], 10.8 µM; in assay [6] it was 39.9 µM; in [7], 60.7 µM. The TGI in assay [8] is > 100 µM; in assay [9], 33.2 µM; in assay [11] it was 44.8 µM.

In the case of `NNc1nncc2[nH]cnc12`, the TGI in assay [1], in assay [2], in [3], in assay [4], in [5] and in assay [10] was > 100 µM in each case. Also, the TGI in [7], in assay [8], in assay [9] and in [11] was > 100 µM each time.

On to `CCOC(=O)c1c(-c2ccc(Cl)cc2)c(C#N)c(=S)n(C2OC(COC(C)=O)C(OC(C)=O)C(OC(C)=O)C2OC(C)=O)c1-c1ccccc1` (configuration not stated), for which the concentration for total growth inhibition (TGI) in [2], in [3], in assay [4], in assay [5], in assay [10] and in [6] was > 100 µM in each case. Further, the TGI in [7], in [8], in assay [9] and in assay [11] was > 100 µM in each case.

`C/C(=C\c1ccccc1)C(=O)NCc1ccc(C(=O)NCCc2ccccc2)cc1`: the TGI in assay [1], in [2], in assay [3], in [4], in assay [10] and in [6] was > 100 µM throughout. The TGI in assay [7], in [8], in [9] and in assay [11] was > 100 µM throughout.

With `CCCCCCCC(CC(=O)NC(CO)C(=O)NC(CO)CC(C)C)OC(=O)CC(CCCCCCC)OC(=O)CC(CCCCCCC)OC1OC(C)C(O)C(OC2OC(C)C(O)C(O)C2OC(C)=O)C1O` (configuration not stated), the TGI in assay [1] was found to be 29.4 µM; in assay [2], 25.1 µM; in [3] it was 22.4 µM; in [4], 15.1 µM; in [5] it was 10.4 µM; in [10], 16.8 µM. The TGI in assay [6] was 19.9 µM; in [8], 20.8 µM; in assay [9] it was 26 µM; in assay [11], 13.5 µM.

As for `CC1=NN(C(=O)CC(=O)Nc2ccccc2Cl)C(=O)C1N=Nc1ccc(S(=O)(=O)c2ccc(N=NC3C(=O)N(C(=O)CC(=O)Nc4ccccc4Cl)N=C3C)cc2)cc1` (configuration not stated), the TGI in [2], in assay [3], in assay [4], in [5], in [10] and in [6] was > 100 µM in each case. Further, the TGI in [7], in [8], in [9] and in assay [11] was > 100 µM throughout.

Consider `O=c1oc2ccc([N+](=O)[O-])cc2c(Nc2ccc3c(c2)Sc2ccccc2O3)c1[N+](=O)[O-]`, for which the TGI is 64.3 µM in [2]; 99.5 µM in [3]; 30.5 µM in [4]; 46.8 µM in [5]; 88.3 µM in assay [10]; 98.2 µM in [6]. In addition, the TGI in [7] came out at 54.2 µM; in assay [8] it was 36.2 µM; in assay [9], 58.3 µM; in assay [11], 69 µM.

As to `COc1cc(C2c3cc4c(cc3OC(Nc3ccccc3)C2C)OCO4)cc(OC)c1O` (configuration not stated), the TGI was determined as 26 µM in assay [2]; 19.6 µM in assay [3]; 16 µM in [4]; 4.34 µM in assay [5]; 7.49 µM in assay [10]; 48.2 µM in assay [6]. In addition, the TGI in assay [7] was 9.86 µM; in assay [8] it was > 100 µM; in [9], 20.2 µM; in [11] it was 34 µM.

With `O=C(CCCCCCCCC(=O)N1C(=O)CC(=O)N(c2ccccc2)C1=S)N1C(=O)CC(=O)N(c2ccccc2)C1=S`, the TGI in assay [1], in assay [2], in assay [3], in [4], in assay [6] and in assay [7] was > 100 µM throughout. The TGI in [8], in assay [9] and in assay [11] was > 100 µM throughout.

As to `COc1cc(O)c2c(=O)c3c(C)cccc3n(C)c2c1`, the TGI in [1], in assay [2], in [3], in assay [4], in assay [10] and in [6] was > 10 µM each time. In addition, the TGI in assay [7], in [8], in [9] and in assay [11] was > 10 µM each time.

In the case of `COC(OC)C1OCC(n2cc(F)c(=O)[nH]c2=O)C1O` (configuration not stated), the TGI in assay [1], in assay [2], in assay [3], in assay [4], in assay [10] and in assay [6] was > 100 µM in each case. For the same compound, the TGI in assay [7], in [8], in [9] and in [11] was > 100 µM in each case.

On to `CCOC(=O)c1nc2ccccc2nc1Oc1ccc(C(=O)OC)cc1`, for which the TGI in assay [1], in assay [2], in assay [3], in [4], in assay [10] and in assay [6] was > 100 µM each time. For the same compound, the TGI in assay [7], in assay [8], in assay [9] and in [11] was > 100 µM in each case.

Turning to `CCCCCCNC(=O)CCC(NC(=O)c1ccc(N(C)Cc2cnc3nc(N)nc(N)c3n2)cc1)C(=O)NCCCCCC` (configuration not stated), the TGI in assay [1], in [2], in assay [3], in [4], in assay [10] and in assay [6] was > 100 µM throughout. The TGI in [7], in assay [8], in assay [9] and in assay [11] was > 100 µM throughout.

In the case of `Cc1ccc(C(=O)N(Cc2ccccc2)Cc2ccccc2)cc1N=NN(C)C`, the TGI in assay [2] was 45.6 µM; in assay [3] it was > 100 µM; in [4], 30 µM; in assay [5] it was 61.9 µM; in assay [10] it was > 100 µM; in assay [6], > 87.4 µM. Also, the TGI in assay [7] is > 100 µM; in assay [8] it was > 100 µM; in assay [9], > 100 µM; in assay [11], 53.4 µM.

On to `O=C(CCCCCC(=O)N1CC(CCl)c2ccc([N+](=O)[O-])cc21)N1CC(CCl)c2ccc([N+](=O)[O-])cc21` (configuration not stated), for which the TGI in assay [1], in [2], in assay [3], in assay [4], in [5] and in assay [10] was > 100 µM throughout. The TGI in assay [6], in assay [8], in assay [9] and in assay [11] was > 100 µM throughout.

Source of the values: PubChem BioAssay (NCI).
